A short description of series [1]: Plasma protein binding rate, dog plasma. The format is in vitro ADME. The following applies: 37° C. As for the experimental part:
(§1) The embodiment compound was prepared into a 1 mM solution A with DMSO.
(§2) Solution A was added to the plasma solution and prepared into a 5 μM solution B.
(§3) • 1) 200 μL of solution B was added into the membrane. • 2) 350 μL of PBS was added to the outside of the membrane. • 3) Incubating in a 37° C. water bath for 6 hours. • 4) The samples were processed for dilution and detected by mass spectrometry.
(§4) • Instrument: Shimadzu LC-20 AD; • Chromatographic column: phenomenex Gemiu® C18 (50*4.6 mm, 5 μM particle size); • Mobile phase: A: Acetonitrile, B: 0.1% formic acid solution 0-0.5 min: 5% A→90% A, 2.0-2.1 min: 90% A→5% A; flow rate: 0.8 mL/min; running time: 5.0 min; injection volume: 5 μL.
(§5) • Instrument: API4000 Liquid Chromatography-Mass Spectrometry, AB, USA; • the ion source was electrospray ionization source (ESI); • the temperature of dry gas (N2) was 500° C.; • electrospray voltage was 5500V; • the detection method was positive ion detection; • the scanning mode was selective response monitoring (MRM); the scanning time was 0.1 s.

Series [2] relates to NCI-H358 cells (KRAS G12C mutant cell line). Put plainly: Inhibition of NCI-H358 cell proliferation (CellTiter-Glo, 72 h). In kind it is cell-based, human. Particulars: Homo sapiens. A digest of the protocol:
(§6)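 Cells were seeded overnight at 37 °C, 5% CO2, then exposed to serially diluted compound (DMSO/medium) alongside a solvent control for 72 h. Viability was read by CellTiter-Glo luminescence, and IC50 was derived by nonlinear regression of inhibition rate against concentration.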

Series [3] in a line: Plasma protein binding rate, mouse plasma. The format is in vitro ADME. The following applies: 37° C. As to the method: as §1, §2, §3, §4, §5
Series [4] in a line: Plasma protein binding rate, rat plasma. In kind it is in vitro ADME. The following applies: 37° C. As to the method:
as §1, §2, §3, §4, §5

A further series addresses T1, hERG potassium channel (Homo sapiens, UniProt Q12809).
T1 construct: expressed in transfected cells; host or cells: CHO-hERG cells
Put plainly: hERG potassium channel inhibitory activity (Qpatch, CHO-hERG cells). The format is cell-based. The following applies: inhibition of hERG current, multiple concentrations. As for the experimental part:
7.1.1 CHO-hERG cells were cultured in a 175 cm^2 flask, when the cell density reached 60-80%, the culture medium was removed, the cells were washed with 7 mL PBS, and then digested with 3 mL Detachin.
7.1.2 After complete digestion, 7 mL culture medium was added to neutralize, then the mixture was centrifuged, the supernatant was aspirated, and then 5 mL culture medium was added to re-suspend, ensuring 2-5×10^6/mL of cell density.
The process of single cell high impedance sealing and whole cell mode formation were all automatically completed by Qpatch instrument, after obtaining the whole cell recording mode, the cells were clamped at −80 mV, before giving a 5-second +40 mV depolarization stimulus, a 50 millisecond −50 mV prevoltage was given first, and then repolarized to −50 mV for 5 seconds, then returned to −80 mV. This voltage stimulation was applied every 15 seconds and recorded for 2 minutes before giving extracellular fluid recordings for 5 minutes, and then the administration process was started, the compound concentration was given from the lowest test concentration, each test concentration was given for 2.5 minutes, and the positive control compound 0.1 μM of Cisapride was given after all concentrations were continuously given. At least 3 cells (n≥3) were tested at each concentration.
7.4.1 20 mM of compound mother liquor was diluted with extracellular fluid, 5 μL of 20 mM compound mother liquor was added into 2495 μL of extracellular fluid and diluted 500-fold to 40 μM, and then the final concentration to be tested was obtained by sequential 3-fold serial dilutions in extracellular solution containing 0.2% DMSO.
7.4.2 The highest test concentration was 40 μM, in a total of 6 concentrations of 40, 13.33, 4.44, 1.48, 0.49 and 0.16 μM respectively.
7.4.3 The content of DMSO in the final test concentration was not more than 0.2%, and this concentration of DMSO had no effect on hERG potassium channel.
The experimental data were analyzed by XLFit software.

Series [5] can be described thus: Plasma protein binding rate, human plasma. Particulars: 37° C. The format is in vitro ADME. As for the experimental part: as §1, §2, §3, §4, §5
Series [6] deals with Mia PaCa-2 cells (KRAS G12C mutant cell line). Put plainly: Inhibition of Mia PaCa-2 cell proliferation (CellTiter-Glo, 72 h). The format is cell-based, human. The following applies: Homo sapiens. A digest of the protocol:
as §6

Structures are written as SMILES.

T1 sequence (Q12809 whole entry): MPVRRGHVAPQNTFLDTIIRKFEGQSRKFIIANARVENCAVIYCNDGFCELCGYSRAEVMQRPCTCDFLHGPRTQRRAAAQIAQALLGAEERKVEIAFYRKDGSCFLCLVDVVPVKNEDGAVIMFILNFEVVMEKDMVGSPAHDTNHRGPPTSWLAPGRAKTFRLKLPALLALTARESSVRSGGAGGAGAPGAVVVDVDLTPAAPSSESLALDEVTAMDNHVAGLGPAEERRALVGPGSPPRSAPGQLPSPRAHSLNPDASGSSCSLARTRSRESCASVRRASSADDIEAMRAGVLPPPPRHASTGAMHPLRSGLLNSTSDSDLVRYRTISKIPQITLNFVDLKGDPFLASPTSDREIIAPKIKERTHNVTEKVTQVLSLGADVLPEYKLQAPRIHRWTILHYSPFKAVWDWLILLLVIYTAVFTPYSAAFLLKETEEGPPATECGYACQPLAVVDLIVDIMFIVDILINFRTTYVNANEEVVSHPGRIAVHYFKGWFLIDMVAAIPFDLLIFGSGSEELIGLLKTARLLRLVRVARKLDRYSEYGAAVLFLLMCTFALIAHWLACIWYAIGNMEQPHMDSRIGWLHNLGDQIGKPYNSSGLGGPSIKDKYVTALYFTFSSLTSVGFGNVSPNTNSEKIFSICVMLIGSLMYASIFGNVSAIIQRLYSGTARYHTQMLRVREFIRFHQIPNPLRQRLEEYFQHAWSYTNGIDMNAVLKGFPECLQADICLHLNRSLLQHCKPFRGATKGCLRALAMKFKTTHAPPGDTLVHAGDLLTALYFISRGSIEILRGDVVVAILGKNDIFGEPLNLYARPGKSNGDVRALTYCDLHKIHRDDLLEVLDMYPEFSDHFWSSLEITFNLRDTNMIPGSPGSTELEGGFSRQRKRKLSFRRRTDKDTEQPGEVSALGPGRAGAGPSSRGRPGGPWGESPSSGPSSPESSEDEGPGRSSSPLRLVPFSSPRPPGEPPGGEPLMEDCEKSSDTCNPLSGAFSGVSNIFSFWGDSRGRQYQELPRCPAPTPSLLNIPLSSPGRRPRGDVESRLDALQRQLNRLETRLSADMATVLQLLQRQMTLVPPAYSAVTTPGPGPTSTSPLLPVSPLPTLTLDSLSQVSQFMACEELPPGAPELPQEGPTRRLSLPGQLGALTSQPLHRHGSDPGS

Regarding `C=CC(=O)N1C[C@H](C)N(c2nc(=O)n(-c3c(SC)ccnc3C(C)C)c3nc(-c4c(O)cccc4F)c(F)cc23)C[C@H]1C` (single isomer, unassigned) [Embodiment 114-1], the fraction unbound at 6 h, 5 μM is 0.174 in series [1], 0.116 in series [3], 0.095 in series [4] and 0.02 in series [5]. Further, the IC50 in series [2] is 35 nM; on hERG potassium channel, above 30 µM; in series [6], 29 nM.

For the compound `C=CC(=O)N1C[C@H](C)N(c2nc(=O)n(-c3c(SC)ccnc3C(C)C)c3nc(-c4c(N)ccc(Cl)c4F)c(Cl)cc23)C[C@H]1C` (single isomer, unassigned) [Embodiment 165-1], the fraction unbound at 6 h, 5 μM in series [1] was 0.013; in series [3], 0.061; in series [4], 0.021; in series [5], 0.003. In addition, the IC50 in series [2] was 6.6 nM; against hERG potassium channel, above 30 µM; in series [6], 3.3 nM.

As for `C=CC(=O)N1C[C@H](C)N(c2nc(=O)n(-c3c(SC)ccnc3C(C)C)c3nc(-c4c(O)cccc4F)c(Cl)cc23)C[C@H]1C` (single isomer, unassigned) [Embodiment 166-1], the fraction unbound at 6 h, 5 μM in series [1] was 0.075; in series [3] it was 0.037; in series [4], 0.046; in series [5], 0.032. Besides, the IC50 is 17 nM in series [2], above 30 µM against hERG potassium channel and 11 nM in series [6].

These data come from patent US12497396B2, “Nitrogen-containing heterocyclic derivatives, method therefor and application therefor as inhibitors of KRAS G12C for the treatment of cancers” (SHANGHAI HANSOH BIOMEDICAL CO., LTD., priority 2019, dated 2025).
